{"source": "patent US5698669A", "about": "“Tri-arginine insulins” (Eli Lilly and Company, priority 1995, dated 1997)", "key": {"[1]": {"tested_on": "New Zealand White rabbits", "test": "Blood glucose in fasted rabbits after subcutaneous injection of 40 U/ml insulin solutions", "assay_type": "in vivo, rabbit", "settings": "for Percent of Original Blood Glucose: added zinc 0 mg/ml, 0.2 U/kg s.c., rabbits, n = 10; for hypoglycemic activity: statement in words, animal model", "method": "Solutions were prepared containing various amounts of zinc (0-2.4 mg/ml) in the form of zinc chloride. Glacial acetic acid was used to solublize each of the solutions at a final pH range of pH 4-6.\nNew Zealand White rabbits, mostly female, all weighing 2.7-4 kg, 0.5-4 years of age and fasted 16 hours prior to administration of sample were used for testing.\nAt various times, 100 μl volumes of blood were obtained from the marginal ear veins, mixed with 900 μl volumes of anticoagulant (EDTA-sodium fluoride) and analyzed for glucose content. The glucose values were standardized to reflect percent of original blood glucose measured prior to sample injection."}, "human proinsulin (human)": {"biological_target": "human proinsulin (human) (UniProt P01308)"}, "[2]": {"settings": "standardized value used for formulating 40 U/ml solutions; cited from earlier work"}, "[3]": {"biological_target": "des(64) human proinsulin (human) (UniProt P01308)"}}, "data": [{"substance": "Des(64) HPI: split(64) proinsulin wherein Lys-64 is removed", "values": [{"measurement": "Percent of Original Blood Glucose", "setting": "[1]; 4 hours after injection", "result": 99.6, "unit": "%"}, {"measurement": "Percent of Original Blood Glucose", "setting": "[1]; 6 hours after injection", "result": 90.0, "unit": "%"}, {"measurement": "hypoglycemic activity", "setting": "[1]", "result": "hypoglycemic activity of its own"}]}, {"substance": "Pseudomonas aeruginosa Endopeptidase-Lys-C (Promega) (enzyme)", "values": [{"measurement": "conversion of human proinsulin to split(64) proinsulin (preparative HPLC, yield of product)", "setting": "human proinsulin (human)", "result": 237, "unit": "mg"}]}, {"substance": "Split(64) HPI: human proinsulin wherein the peptide bond between Lys-64 and Arg-65 is broken", "values": [{"measurement": "hypoglycemic activity", "setting": "[1]", "result": "hypoglycemic activity of its own"}]}, {"substance": "human insulin: natural human insulin, reference for biopotency", "values": [{"measurement": "standardized value (potency per mass)", "setting": "[2]", "result": 28.85, "unit": "U/mg"}]}, {"substance": "pork trypsin (Sigma) (from UniProt P00761) (enzyme)", "values": [{"measurement": "conversion of des(64) human proinsulin to tri-arg insulin (preparative HPLC, yield of product)", "setting": "[3]", "result": 0.94, "unit": "g"}]}]}
